According to patent US20190167593A1, “C[…] PHARMACEUTICALLY ACCEPTABLE SALT THEREOF, AND APPLICATION OF SAME” (priority 2016, published 2019):
Several values for one entry are separate records, joined by “and”; a condition that tells them apart may be missing. Identical values can stand only once. Entries after “also recorded” stand apart in the source; their conditions may differ.

How the values were obtained:
[1] = tested on: H274Y virus; format: cell-based; settings: read-out: IC50 against influenza virus replication (plaque formation), H274Y
[2] = tested on: NAI drug-resistant mutant stain H274Y-PR8 virus; set-up: species or system BALB/c mice; settings: mouse, in vivo
[3] = tested on: H274Y mutant influenza virus; settings: background statement; cited from earlier work

Compound	IC50 [1]	disease symptoms [2]	mortality rate [2] [%]	decrease of activity due to the resistance caused by the mutation of H274Y [3]	body weight [2]	body weight decrease [2]
CCOC(=O)C1=C[C@@H](OC(CC)CC)[C@H](NC(C)=O)[C@@H](N)C1.O=P(O)(O)O [Oseltamivir phosphate, ethyl (3R, 4R, 5S)-4-acetamido-5-amino-3-(1-ethylpropoxy)-1-cyclohexene-1-carboxylate phosphate]	15000 nM	obvious disease symptoms	40	more than 300 times		
CCCCS(=O)(=O)N[C@@H]1CCCN([C@@H]2C=C(C(=O)O)C[C@H](NC(=N)N)[C@H]2NC(C)=O)C1 [(3R,4R,5S)-4-acetamido-5-guanidino-3-((3R)-3-n-butylsulfonamidopiperidin)-1-cyclohexene-1-carboxylic acid]	130 nM and 131 nM	no symptoms of any diseases	20		basically the same as that of the uninfected control mice; also recorded: decreased significantly	
Peramivir	643 nM	mild disease symptoms; also recorded: obvious disease symbols	60		significant weight decline	about 6%
